In brackets after ≈: the same amount, converted by molar mass.
What was measured:
Type in all cases: cell-based, Pseudomonas aeruginosa
[1] = system: MPAO1; test: microbe, parasite or virus in culture; details: Pseudomonas aeruginosa; strain MPAO1; read-out: MIC, average of triplicates
Method: (§1) MIC experiments were performed using biological triplicates.

[2] = system: PAO1; test: microbe, parasite or virus in culture; details: Pseudomonas aeruginosa; strain PAO1; read-out: MIC, average of triplicates
Method: as §1

[3] = system: MPAO1-ΔmutS; test: In vitro adaptive evolution (serial passaging) with MIC determination; details: for MIC: Pseudomonas aeruginosa
Method: (§2) MICs were determined via microbroth dilution assay in 96-well culture plates with 2-fold serial dilutions of tested antibiotic in Mueller-Hinton (cation-adjusted) broth, inoculated with 50 μL of 2.75×10^5 CFU/mL of each bacterial strain and incubated at 37° C., 200 rpm for 24 hours. MIC experiments were performed using biological triplicates.
(§3) Serial passaging of bacterial strains was performed in 96-well culture plates with 2-fold serial dilutions of antibiotic in MH broth, inoculated with 50 μL 2.75×10^5 CFU/mL of each strain and incubated at 37° C., 200 rpm for 24 hours. […] The bacteria were then serially passaged in the same antibiotic and MIC determined for all antibiotics (aztreonam, ciprofloxacin, D-CONGA, D-CONGA-Q7, polymyxin B). See Antimicrobial susceptibility testing section. The bacteria were serially passaged a total of 10 times.
(§4) All resistance acquisition data was analyzed in units of fold-change to normalize for differences in starting MIC across strains. Fold-change in MIC data for all strains and treatment groups was natural log-transformed and simple linear regression was performed considering each replicate fold-change value as an individual point. Slope, standard error of slope, and total number of values of each treatment group of interest were analyzed via unpaired t-test (ΔmutS vs WT) or ordinary one-way ANOVA (cross-resistance acquisition of ΔmutS+AB vs −AB vs WT), and α-values were corrected for multiple comparisons using the Bonferroni method. Differences in estimated mutation rate across treatment groups were determined via ordinary one-way ANOVA (Brown-Forsythe test). For all statistical tests, p<0.05 was considered significant. All figures were created and statistical tests were done using GraphPad Prism 9.3.1.

[4] = system: MPAO1; test: as above; details: for MIC: Pseudomonas aeruginosa
Method: as §2, §3, §4

[5] = system: MPAO1-ΔmutL; test: as above; details: Pseudomonas aeruginosa
Method: as §2, §3, §4

[6] = system: MPAO1-ΔmutS; test: MIC, microbroth dilution assay; details: for MIC: Pseudomonas aeruginosa, read-out: MIC, average of triplicates
Method: as §1

[7] = system: MPAO1-ΔmutL; test: MIC, microbroth dilution assay; details: Pseudomonas aeruginosa, read-out: MIC, average of triplicates
Method: as §1

C[C@H]1[C@H](NC(=O)/C(=N\OC(C)(C)C(=O)O)c2csc(N)n2)C(=O)N1S(=O)(=O)O [Aztreonam] was tested, and the MIC [1] was 2 µg/mL (≈ 4.59 µM), the MIC [2] was 3 µg/mL (≈ 6.89 µM) and the MIC ([3]; read-out: Average MIC at end point, MPAO1-ΔmutS evolved in AZ) was 107 µg/mL (≈ 246 µM). It also gave an MIC ([3]; read-out: Average MIC at end point, MPAO1-ΔmutS evolved in AZ + COL) of 16 µg/mL, an MIC ([3]; read-out: Average MIC at end point, MPAO1-ΔmutS evolved in AZ + D-CONGA) of 18 µg/mL and an MIC ([3]; read-out: Average MIC at end point, MPAO1-ΔmutS evolved in AZ + D-CONGA-Q7) of 16 µg/mL. The MIC ([3]; read-out: Average MIC at end point, MPAO1-ΔmutS evolved in Chl) was 32 µg/mL (≈ 73.5 µM), the MIC ([3]; read-out: Average MIC at end point, MPAO1-ΔmutS evolved in D-CONGA) was 16 µg/mL (≈ 36.7 µM) and the MIC ([3]; read-out: Average MIC at end point, MPAO1-ΔmutS evolved in D-CONGA-Q7) was 4 µg/mL (≈ 9.19 µM). For the same molecule, the MIC ([3]; read-out: Average MIC at end point, MPAO1-ΔmutS passaged with No Antibiotic (Table 4)) was 8 µg/mL (≈ 18.4 µM), the MIC ([3]; read-out: Average MIC at end point, MPAO1-ΔmutS passaged with No Antibiotic (Table 8)) was 5 µg/mL (≈ 11.5 µM) and the MIC ([4]; read-out: Average MIC at end point, MPAO1 evolved in AZ) was 8 µg/mL (≈ 18.4 µM). It also gave an MIC ([4]; read-out: Average MIC at end point, MPAO1 evolved in AZ + COL) of 19 µg/mL, an MIC ([4]; read-out: Average MIC at end point, MPAO1 evolved in AZ + D-CONGA) of 11 µg/mL and an MIC ([4]; read-out: Average MIC at end point, MPAO1 evolved in AZ + D-CONGA-Q7) of 4 µg/mL. The MIC ([4]; read-out: Average MIC at end point, MPAO1 evolved in Chl + Str) was 3 µg/mL, the MIC ([4]; read-out: Average MIC at end point, MPAO1 evolved in D-CONGA) was 7 µg/mL (≈ 16.1 µM) and the MIC ([4]; read-out: Average MIC at end point, MPAO1 evolved in D-CONGA-Q7) was 7 µg/mL (≈ 16.1 µM). The MIC ([4]; read-out: Average MIC at end point, MPAO1 passaged with No Antibiotic (Table 4)) was 3 µg/mL (≈ 6.89 µM), the MIC ([4]; read-out: Average MIC at end point, MPAO1 passaged with No Antibiotic (Table 8)) was 4 µg/mL (≈ 9.19 µM) and the MIC ([5]; read-out: Average MIC at end point, MPAO1-ΔmutL evolved in Chl + Str) was 32 µg/mL. The MIC ([5]; read-out: Average MIC at end point, MPAO1-ΔmutL passaged with No Antibiotic) was 11 µg/mL (≈ 25.3 µM), the MIC [6] was 13 µg/mL (≈ 29.9 µM) and the MIC [7] was 30 µg/mL (≈ 68.9 µM).

With O=C(N[C@H](CO)[C@H](O)c1ccc([N+](=O)[O-])cc1)C(Cl)Cl [Chloramphenicol] the MIC [1] was no less than 400 µg/mL, the MIC [2] was 400 µg/mL (≈ 1240 µM) and the “cross-resistance to antibiotics induced by treatment” value ([3]; MPAO1-ΔmutS evolved in the named drug) was “induced cross-resistance to antibiotics in a different class such as ciprofloxacin”. The “cross-resistance induced by treatment” value ([4]; antibiotic-treated wild type MPAO1) was “no cross resistance developed”, the MIC [6] was no less than 400 µg/mL and the “susceptibility of the strains before evolution (summary of Table 3)” value ([6]; wild type and mutS-deficient MPAO1) was “anticipated intrinsic resistance”. It also gave an MIC [7] of 400 µg/mL (≈ 1240 µM).

From patent US20260224658A1, “PRODUCTS AND METHODS FOR THE DIAGNOSIS AND TREATMENT OF P[…]” (priority 2023, published 2026)
